Reference: patent publication US6525017B1, “Using glutathiane to protect neurons from injury” (The Children's Medical Center Corporation, priority 1989, dated 2003)

Key:
retinal ganglion cells = experiment: Survival of retinal ganglion cells exposed to glutamate (NMDA neurotoxicity); assay type: cell-based, rat
Description: To investigate the influence of redox modulation on NMDA neurotoxicity, survival of an identified central neuron, the retinal ganglion cell, was monitored for 12-24 hr after a brief (5-10 min.) exposure to DTT. To determine the degree of killing specifically related to activation of the NMDA receptor, APV at 200 μM was added to sibling cultures. APV-preventable, glutamate-induced death was increased 70±9% with DTT treatment.
Retinal ganglion cell neurons were labeled in situ, dissociated from the retina, and cultured as follows. Retinal ganglion cells from 7- to 12-day-old Long-Evans rats were labeled and enzymatically dissociated as described by Leifer et al., Science 224: 303, 1984. Following rinse of the dissociated retinal cells with a physiological saline based on Hanks' salts (composition in mM: NaCl, 137; NaHCO3, 1; Na2HPO4, 0.34; KCl, 5,36; KH2PO4, 0.44; CaCl2, 1.25, MgSO4, 0.5; MgCl2, 0.5; N-2-hydroxyethyl-piperazine-N′-2-ethanesulfonic acid (HEPES), 5; dextrose, 22.2; Phenol Red, 0.001% v/v; adjusted to pH 7.2 with 0.3 M NaOH), the cells were mechanically dispersed and aliquoted to treatment vials. These vials contained control saline solution, or saline solution with either 0.5-2 mM DTT, or 0.5 mM DTT in the presence of 1 mM DTNB. Treatment groups with DTNB were readjusted to pH 7.2 with 0.3 M NaOH. Cells were agitated gently over a 5-10 min period. After treatment, 100 μl volumes of the cell suspension were plated onto glass coverslips coated with poly-L-lysine in 35×10 mm tissue-culture dishes containing 2 ml of culture medium. The cell culture medium was based on Eagle's minimum essential medium (MEM), modified so that it was nominally free of magnesium and contained 10 mM CaCl2 to enhance NMDA receptor-mediated neuro-toxicity. The medium was also supplemented with methylcellulose 0.7% w/v, gentamicin 1 μg/ml, dextrose 16 mM, and rat serum 5% v/v. Glutamate levels in the culture medium were monitored by HPLC analysis. Concentrations of glutamate added to the medium of each experiment to induce cell killing averaged 10 μM (day to day variability in neuronal cell death was most probably due to slight variations in the amount of endogenous glutamate or a glutamate-like substance in these cultures). The 100 μl aliquots of cell suspension diluted into the 2 ml of MEM produced a final concentration of 50 μM Mg^2+, as well as levels of DTT and DTNB at 5% of their initial treatment concentrations. The cell cultures were incubated for 12-24 hours at 37° C. in an atmosphere of 5% CO2/95% humidified air. Neuronal survival was then scored by counting retinal ganglion cells displaying uptake and cleavage of fluorescein diacetate to fluorescein, as described by Hahn et al. Proc. Nat. Acad. Sci. USA 85:6556, 1988.
Experiments were conducted in triplicate and repeated on eleven separate days. In order to compare results obtained on different days, data were normalized such that the total number of surviving neurons in a given experiment divided by the number of treatment categories (i.e., 4) equalled 100.
Retinal cells were cultured as described in Example 1. In these experiments transient exposure to the reduced form of DTT (500 μM) occurred in the presence of DTNB (1 mM).

NMDA receptor = experiment: NMDA-induced responses recorded in intact chick retina (eyecup, optic nerve DC potential); assay type: cell-based
Description: Eyecups were obtained from 2-to 5-day-old chicks and continuously superfused at 20-25° C. at a rate of 8 ml/min with Tyrodes solution (130 mM NaCl, 3 mM KCl, 17 mM dextrose, 20 mM NaHCO3, 0.01% w/v phenol red; bubbled with a gas mixture of 95% O2 and 5% CO2) containing 5 mM MgCl2 to reduce synaptic activity. […] Traces were triggered by the opening of two solenoid valves that shunted approximately 200 μl of agonist (1, 1-dimethyl-4-phenyl-piperazinium iodide, DMPP or NMDA) into the perfusion line, Agonists reached the preparation approximately 7s later. […] Some experiments were performed in the presence of 10 μg/ml catalase and 1 μg/ml superoxide dismutase. Antagonists, reducing agents, or oxidizing agents were introduced directly via the perfusate.

non-NMDA receptors = experiment: Whole-cell currents elicited by non-NMDA agonists in rat retinal ganglion cells; assay type: cell-based; details: 125 μM kainate, 60 μM AMPA, 30 μM quisqualate
Description: The third central neuronal preparation in which the effects of oxidation and reduction on NMDA responses were tested was the isolated rat retinal ganglion cell. Postnatal retinal ganglion cells were identified and cultured as described in Lipton et al., supra. Physiological solutions and experimental protocol were the same as described for cortical neurons (Example 2), except that TTX was excluded from the extracellular fluid, since whole-cell recordings were performed on neurons that were solitary and had no apparent connections to other cells and no spontaneous action potentials.
In the retinal ganglion cells, we further tested the effects of DTT and DTNB on responses elicited by glutamate analogs acting at non-NMDA receptors to confirm our previous observations in the chick retina, i.e., a lack of effect of reduction and oxidation on responses induced by agonists acting at non-NMDA receptors.

Structure (SMILES)	DTT-enhanced glutamate-induced death with concomitant DTNB (retinal ganglion cells; 0.5 mM DTT in the presence of 1 mM DTNB)	decrease of NMDA response following oxidation (NMDA receptor; 0.1-1.0 mM DTNB applied for 5 min, compared with controls, mean ± spread)	decrease of NMDA response following oxidation, range (NMDA receptor; 0.1-1.0 mM DTNB applied for 5 min, range)	responses elicited by kainate, AMPA or quisqualate after oxidation (non-NMDA receptors; 200 μM DTNB)	death of retinal ganglion cells exposed to glutamate in the culture medium (retinal ganglion cells; APV 200 μM, DTT transient exposure, 12-24 hr)	increase of APV-preventable, glutamate-induced death (retinal ganglion cells; brief (5-10 min) exposure to DTT, survival monitored 12-24 hr) [%]	response to NMDA, % of control (potentiation) (NMDA receptor; 100 μM NMDA, DTT 1-2 mM applied for 10-25 min, mean ± spread)	response to NMDA, % of control, range (NMDA receptor; 100 μM NMDA, DTT 1-2 mM applied for 10-25 min, range)	currents elicited by kainate, AMPA or quisqualate after reduction (non-NMDA receptors; 1 mM DTT)
O=C(O)c1cc(SSc2ccc([N+](=O)[O-])c(C(=O)O)c2)ccc1[N+](=O)[O-] [DTNB, 5′-5′-dithiobis-2-nitrobenzoic acid]	totally blocked	81.6%±24.1%	43%-100%	did not affect	–	–	–	–	–
O[C@@H](CS)[C@@H](O)CS [DTT, dithothreitol]	–	–	–	–	substantially increased death	70±9	530%±280%	200%-860%	no substantial effect
